Measurements: patent US11130769B2 (Prelude Therapeutics Incorporated, priority 2018, dated 2021)
Read-outs that look alike come from different tables or passages of the source.

What was measured:
MCL-1 = MCL-1 (Homo sapiens (Human), UniProt Q07820); assay: Cell free Mcl-1:Bim affinity assay (fluorescence polarization competition); format: binding; details: 15 nM MCL-1, 5 nM FITC-Bim, 1 hour at room temperature; class symbols; read-out: BIM_Ki
Method in brief: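 Compounds competed with FITC-labelled Bim peptide (5 nM) for MCL-1 (15 nM) in HEPES/NaCl buffer with 1% DMSO, 1 h at room temperature. Fluorescence polarization (535 nm emission) gave % inhibition versus DMSO and positive controls; IC50 from 10-point curves, converted to Ki by the Nikolovska-Coleska equation.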

H929 cells = assay: Cell viability assay (H929 10 FBS); format: cell-based; details: read-out: H929_10FBS IC50
Method in brief: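 H929 cells, 4000/well, in RPMI 1640 with 10% FBS, sodium pyruvate, HEPES and glucose were exposed to compound 24 h at 37 °C. Viability read as luminescence after 30-60 min at RT with CellTiter-Glo or ATPlite 1 Step.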

[1] = Homo sapiens, NCI-H929, 24 hours

MCL-1, sequence (Q07820 whole entry): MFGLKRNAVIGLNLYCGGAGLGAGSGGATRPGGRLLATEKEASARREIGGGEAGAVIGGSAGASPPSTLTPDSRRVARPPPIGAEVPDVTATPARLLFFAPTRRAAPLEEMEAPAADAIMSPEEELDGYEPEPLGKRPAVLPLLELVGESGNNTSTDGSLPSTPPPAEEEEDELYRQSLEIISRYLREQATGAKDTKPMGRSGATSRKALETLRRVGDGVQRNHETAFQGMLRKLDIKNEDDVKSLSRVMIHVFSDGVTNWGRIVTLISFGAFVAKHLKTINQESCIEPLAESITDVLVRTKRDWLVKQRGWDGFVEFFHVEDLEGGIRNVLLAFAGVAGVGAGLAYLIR

| Structure (SMILES) | Ki (MCL-1) | IC50 (H929 cells; [1]) | IC50 (H929 cells; 24 hours) |
| --- | --- | --- | --- |
| CC1(C)OC/C=C/[C@H](OC(=O)N[C@H]2CCOC2)[C@@H]2CC[C@H]2CN2C[C@@]3(CCCc4cc(Cl)ccc43)COc3ccc(cc32)S(=O)(=O)NC1=O [Example 61, [(3R,6R,7S,8E,22S)-6′-Chloro-12,12-dimethyl-13,15,15-trioxo-spiro[11,20-dioxa-15-thia-1,14-diazatetracyclo[14.7.2.03,6.019,24]pentacosa-8,16,18,24-tetraene-22,1′-tetralin]-7-yl] N-[(3S)-tetrahydrofuran-3-yl]carbamate] | < 1 nM | < 500 nM |  |
| CN(C)CCO[C@H]1/C=C/COC(C)(C)C(=O)NS(=O)(=O)c2ccc3c(c2)N(C[C@@H]2CC[C@H]21)C[C@@]1(CCCc2cc(Cl)ccc21)CO3 [Example 65, (3R,6R,7S,8E,22S)-6′-Chloro-7-[2-(dimethylamino)ethoxy]-12,12-dimethyl-15,15-dioxo-spiro[11,20-dioxa-15-thia-1,14-diazatetracyclo[14.7.2.03,6.019,24]pentacosa-8,16,18,24-tetraene-22,1′-tetralin]-13-one] | < 1 nM | < 500 nM |  |
| CC1(C)OC/C=C/[C@H](OCCN2CCCC2)[C@@H]2CC[C@H]2CN2C[C@@]3(CCCc4cc(Cl)ccc43)COc3ccc(cc32)S(=O)(=O)NC1=O [Example 66, (3R,6R,7S,8E,22S)-6′-Chloro-12,12-dimethyl-15,15-dioxo-7-(2-pyrrolidin-1-ylethoxy)spiro[11,20-dioxa-15-thia-1,14-diazatetracyclo[14.7.2.03,6.019,24]pentacosa-8,16,18,24-tetraene-22,1′-tetralin]-13-one] | < 1 nM | < 500 nM |  |
| COC(=O)N1C/C=C/[C@@H](OC)[C@@H]2CC[C@H]2CN2C[C@@]3(CCCc4cc(Cl)ccc43)COc3ccc(cc32)S(=O)(=O)NC(=O)C2(CCC2)C1 [Example 67, (3R,6R,7R,8E,23S)-6′-Chloro-7-methoxy-11-methoxycarbonyl-13,13-(1,3-propylene)-16,16-dioxo-spiro[21-oxa-16-thia-1,11,15-triazatetracyclo[15.7.2.03,6.020,25]hexacosa[8,17(26),18,20(25)]tetraene-23,1′-tetralin]-14-one] | 1 to 100 nM | > 1000 nM |  |
| CO[C@@H]1/C=C/CNCC(C)(C)C(=O)NS(=O)(=O)c2ccc3c(c2)N(C[C@@H]2CC[C@H]21)C[C@@]1(CCCc2cc(Cl)ccc21)CO3 [Example 68, (3R,6R,7R,8E,23S)-6′-Chloro-7-methoxy-13,13-dimethyl-16,16-dioxo-spiro[21-oxa-16-thia-1,11,15-triazatetracyclo[15.7.2.03,6.020,25]hexacosa[8,17(26),18,20(25)]tetraene-23,1′-tetralin]-14-one] | 1 to 100 nM | > 1000 nM |  |
| CO[C@@H]1/C=C/CCC2(CC2)C(=O)NS(=O)(=O)c2ccc3c(c2)N(C[C@@H]2CC[C@H]21)C[C@@]1(CCCc2cc(Cl)ccc21)CO3 [Example 69, (3R,6R,7R,8E,22S)-6′-Chloro-7-methoxy-12,12-ethylene-15,15-dioxo-spiro[[20]oxa[15]thia-1,14-diazatetracyclo[14.7.2.03,6.019,24]pentacosa[8,16(25),17,19(24)]tetraene-22,1′-tetralin]-13-one] | 1 to 100 nM |  | > 1000 nM |
| CO[C@@H]1/C=C\CCC2(CC2)C(=O)NS(=O)(=O)c2ccc3c(c2)N(C[C@@H]2CC[C@H]21)C[C@@]1(CCCc2cc(Cl)ccc21)CO3 [Example 70, (3R,6R,7R,8Z,22S)-6′-chloro-7-methoxy-12,12-ethylene-15,15-dioxo-spiro[20-oxa-15-thia-1,14-diazatetracyclo[14.7.2.03,6.019,24]pentacosa[8,16(25),17,19(24)]tetraene-22,1′-tetralin]-13-one] | 1 to 100 nM |  | > 1000 nM |
| CO[C@@H]1/C=C/CCC(=O)NS(=O)(=O)c2ccc3c(c2)N(C[C@@H]2CC[C@H]21)C[C@@]1(CCCc2cc(Cl)ccc21)CO3 [Example 74, (3R,6R,7R,8E,21S)-6′-Chloro-7-methoxy-14,14-dioxo-spiro[19-oxa-14-thia-1,13-diazatetracyclo[13.7.2.03,6.018,23]tetracosa-8,15,17,23-tetraene-21,1′-tetralin]-12-one] | < 1 nM | > 1000 nM |  |

The next lines start with results.

| Ki (MCL-1) | IC50 (H929 cells; [1]) | Structure (SMILES) | IC50 (H929 cells; 24 hours) |
| --- | --- | --- | --- |
| < 1 nM | < 500 nM | CCO[C@@H]1CCN(C(=O)O[C@H]2/C=C/COC(C)(C)C(=O)NS(=O)(=O)c3ccc4c(c3)N(C[C@@H]3CC[C@H]32)C[C@@]2(CCCc3cc(Cl)ccc32)CO4)C1 [Example 59, [(3R,6R,7S,8E,22S)-6′-Chloro-12,12-dimethyl-13,15,15-trioxo-spiro[11,20-dioxa-15-thia-1,14-diazatetracyclo[14.7.2.03,6.019,24]pentacosa-8,16,18,24-tetraene-22,1′-tetralin]-7-yl] (3R)-3-ethoxypyrrolidine-1-carboxylate] |  |
| < 1 nM | < 500 nM | COCCN1CCCN(C(=O)O[C@H]2/C=C/COC(C)(C)C(=O)NS(=O)(=O)c3ccc4c(c3)N(C[C@@H]3CC[C@H]32)C[C@@]2(CCCc3cc(Cl)ccc32)CO4)CC1 [Example 60, [(3R,6R,7S,8E,22S)-6′-Chloro-12,12-dimethyl-13,15,15-trioxo-spiro[11,20-dioxa-15-thia-1,14-diazatetracyclo[14.7.2.03,6.019,24]pentacosa-8,16,18,24-tetraene-22,1′-tetralin]-7-yl] 4-(2-methoxyethyl)-1,4-diazepane-1-carboxylate] |  |
| < 1 nM | < 500 nM | CC1(C)OC/C=C/[C@H](OC(=O)N[C@@H]2CCOC2)[C@@H]2CC[C@H]2CN2C[C@@]3(CCCc4cc(Cl)ccc43)COc3ccc(cc32)S(=O)(=O)NC1=O [Example 62, [(3R,6R,7S,8E,22S)-6′-Chloro-12,12-dimethyl-13,15,15-trioxo-spiro[11,20-dioxa-15-thia-1,14-diazatetracyclo[14.7.2.03,6.019,24]pentacosa-8,16,18,24-tetraene-22,1′-tetralin]-7-yl] N-[(3R)-tetrahydrofuran-3-yl]carbamate] |  |
| < 1 nM | < 500 nM | CON(C)C(=O)O[C@H]1/C=C/COC(C)(C)C(=O)NS(=O)(=O)c2ccc3c(c2)N(C[C@@H]2CC[C@H]21)C[C@@]1(CCCc2cc(Cl)ccc21)CO3 [Example 63, [(3R,6R,7S,8E,22S)-6′-Chloro-12,12-dimethyl-13,15,15-trioxo-spiro[11,20-dioxa-15-thia-1,14-diazatetracyclo[14.7.2.03,6.019,24]pentacosa-8,16,18,24-tetraene-22,1′-tetralin]-7-yl] N-methoxy-N-methyl-carbamate] |  |
| < 1 nM | < 500 nM | CN(C(=O)O[C@H]1/C=C/COC(C)(C)C(=O)NS(=O)(=O)c2ccc3c(c2)N(C[C@@H]2CC[C@H]21)C[C@@]1(CCCc2cc(Cl)ccc21)CO3)[C@@H]1CCOC1 [Example 64, [(3R,6R,7S,8E,22S)-6′-Chloro-12,12-dimethyl-13,15,15-trioxo-spiro[11,20-dioxa-15-thia-1,14-diazatetracyclo[14.7.2.03,6.019,24]pentacosa-8,16,18,24-tetraene-22,1′-tetralin]-7-yl] N-methyl-N-[(3R)-tetrahydrofuran-3-yl]carbamate] |  |
| 1 to 100 nM | > 1000 nM | CO[C@@H]1/C=C/C[C@H](C)CC(=O)NS(=O)(=O)c2ccc3c(c2)N(C[C@@H]2CC[C@H]21)C[C@@]1(CCCc2cc(Cl)ccc21)CO3 [Example 71, (3R,6R,7R,8E,11S,22S)-6′-Chloro-7-methoxy-11-methyl-15,15-dioxo-spiro[20-oxa-15-thia-1,14-diazatetracyclo[14.7.2.03,6.019,24]pentacosa-8,16(25),17,19(24)-tetraene-22,1′-tetralin]-13-one] |  |
| 1 to 100 nM | > 1000 nM | CO[C@@H]1/C=C/CC[C@@H](C)C(=O)NS(=O)(=O)c2ccc3c(c2)N(C[C@@H]2CC[C@H]21)C[C@@]1(CCCc2cc(Cl)ccc21)CO3 [Example 72, (3R,6R,7R,8E,12R,22S)-6′-Chloro-7-methoxy-12-methyl-15,15-dioxo-spiro[20-oxa-15-thia-1,14-diazatetracyclo[14.7.2.03,6.019,24]pentacosa-8,16(25),17,19(24)-tetraene-22,1′-tetralin]-13-one] |  |
| 1 to 100 nM | > 1000 nM | CO[C@@H]1/C=C/CCCCC(=O)NS(=O)(=O)c2ccc3c(c2)N(C[C@@H]2CC[C@H]21)C[C@@]1(CCCc2cc(Cl)ccc21)CO3 [Example 73, (3R,6R,7R,8E,23S)-6′-Chloro-7-methoxy-16,16-dioxo-spiro[21-oxa-16-thia-1,15-diazatetracyclo[15.7.2.03,6.020,25]hexacosa-8,17,19,25-tetraene-23,1′-tetralin]-14-one] |  |
| 1 to 100 nM | > 1000 nM | CO[C@H]1/C=C/CCC(=O)NS(=O)(=O)c2ccc3c(c2)N(C[C@@H]2CC[C@H]21)C[C@@]1(CCCc2cc(Cl)ccc21)CO3 [Example 75, (3R,6R,7S,8E,21S)-6′-Chloro-7-methoxy-14,14-dioxo-spiro[19-oxa-14-thia-1,13-diazatetracyclo[13.7.2.0˜3,6.0˜18,23]tetracosa-8,15,17,23-tetraene-21,1′-tetralin]-12-one] |  |
| 1 to 100 nM | > 1000 nM | CO[C@@H]1CCCCC(=O)NS(=O)(=O)c2ccc3c(c2)N(C[C@@H]2CC[C@H]21)C[C@@]1(CCCc2cc(Cl)ccc21)CO3 [Example 76, (3R,6R,7R,21S)-6′-Chloro-7-methoxy-14,14-dioxo-spiro[19-oxa-14-thia-1,13-diazatetracyclo[13.7.2.03,6.018,23]tetracosa-15,17,23-triene-21,1′-tetralin]-12-one] |  |
